Experimental data published in article PMC8237267 (Journal of Medicinal Chemistry, 2021).
“Also recorded” adds a separate entry of the source.

Columns and labels:
[1] = Glutathione stability / reactivity assay; assay type: in vitro ADME; settings: GSH adduct formation by LC/MS/MS; KT-531 up to 24 h
Experimental: Although covalent modification of HDAC6 was not observed (Figure S2), the PFBS group is susceptible to nucleophilic aromatic substitution by biological nucleophiles. A previously described high-throughput in vitro glutathione-reactivity assay was conducted, where compounds were incubated in the presence of glutathione (GSH) and the formation of a GSH-compound adduct was monitored over time via LC/MS/MS.[50]
Compound was added to PBS and 5 mM GSH to reach a final concentration of 5 μM. […] Samples were vortexed and centrifuged for 45 min at 3220g. Aliquots were diluted by ultrapure water, and used for LC/MS/MS analysis. Peak area ratios were determined and percent compounds remaining was calculated by the following equation: [drawing 1] where peak area ratio (t min) is the peak area ratio of control and test compounds at t min; peak area ratio0min is the peak area ratio of control and test compounds at the zero time point. In vitro half-life (t1/2) = −(0.693/k).

[2] = target: T1, HDAC4 (Homo sapiens, UniProt P56524); experiment: HDAC EMSA activity assay (Nanosyn); assay type: biochemical
T1 construct: The full-length human HDACs were recombinantly expressed and purified from SF9 insect cells; host or cells: SF9 insect cells
T1 sequence (P56524 whole entry): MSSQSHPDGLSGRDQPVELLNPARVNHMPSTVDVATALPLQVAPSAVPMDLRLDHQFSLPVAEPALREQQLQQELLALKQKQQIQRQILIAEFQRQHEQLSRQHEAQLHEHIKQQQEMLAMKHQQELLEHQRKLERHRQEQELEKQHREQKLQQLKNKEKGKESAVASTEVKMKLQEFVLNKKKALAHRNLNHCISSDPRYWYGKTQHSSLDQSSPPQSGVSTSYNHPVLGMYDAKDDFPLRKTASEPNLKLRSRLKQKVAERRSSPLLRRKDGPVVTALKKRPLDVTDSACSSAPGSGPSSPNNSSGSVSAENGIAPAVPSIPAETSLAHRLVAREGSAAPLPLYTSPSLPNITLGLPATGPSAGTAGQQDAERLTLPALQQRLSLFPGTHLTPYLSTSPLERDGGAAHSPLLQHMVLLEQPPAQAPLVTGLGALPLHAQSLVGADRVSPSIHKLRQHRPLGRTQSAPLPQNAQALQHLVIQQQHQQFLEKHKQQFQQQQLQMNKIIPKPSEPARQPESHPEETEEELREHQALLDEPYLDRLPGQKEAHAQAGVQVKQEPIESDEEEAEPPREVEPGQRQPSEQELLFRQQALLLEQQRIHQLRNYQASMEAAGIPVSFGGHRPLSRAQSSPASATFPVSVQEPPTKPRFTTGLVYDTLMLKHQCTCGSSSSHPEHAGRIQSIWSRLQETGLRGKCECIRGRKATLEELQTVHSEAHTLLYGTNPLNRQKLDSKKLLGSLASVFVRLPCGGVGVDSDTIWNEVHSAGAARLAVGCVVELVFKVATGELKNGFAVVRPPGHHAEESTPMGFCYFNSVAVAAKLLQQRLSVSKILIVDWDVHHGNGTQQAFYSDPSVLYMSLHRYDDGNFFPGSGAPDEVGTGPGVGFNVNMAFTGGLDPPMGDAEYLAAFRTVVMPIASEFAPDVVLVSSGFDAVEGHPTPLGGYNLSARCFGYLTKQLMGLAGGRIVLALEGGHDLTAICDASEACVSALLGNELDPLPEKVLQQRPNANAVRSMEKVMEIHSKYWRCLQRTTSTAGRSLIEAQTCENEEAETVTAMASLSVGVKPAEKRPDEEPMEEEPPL

[3] = test system: MRC-9; experiment: Cytotoxicity assay (Cell Titer-Blue, 72 h); assay type: cell-based; settings: MRC-9 (healthy fibroblasts); read-out: In cellulo IC50 MRC-9
[4] = In vitro stability in mouse hepatocytes; assay type: in vitro ADME
Experimental: The inhibitors (and controls) were formulated to concentrations of 100 μM in 50% acetonitrile/50% water. The medium (William’s E Medium supplemented with GlutaMAX) and hepatocyte thawing medium were allowed to reach room temperature and the hepatocytes and thawing medium and centrifuged at 100 g for 10 min. The supernatant was removed, and hepatocytes resuspended in the incubation medium (∼1.5 × 10^6 cells/mL). The cells were diluted to 0.5 × 10^6 viable cells/mL. A volume of 198 μL of hepatocytes was transferred to a 96-well noncoated plate and incubated at 37 °C for 10 min. Following this, 2 μL of the 100 μM test compounds or positive control was transferred into respective wells to start the reaction. At different time points (0, 15, 30, 60, 90, and 120 min), 25 μL aliquots were mixed with 6 volumes (150 μL) of acetonitrile containing internal standard, IS (100 nM alprazolam, 200 nM labetalol, 200 nM caffeine, and 200 nM diclofenac) to terminate the reaction. Samples were vortexed for 5 min and centrifuged for 45 min at 3220g, diluted by ultrapure water, followed by LC/MS/MS analysis. The in vitro half-life (T1/2) was determined by regression analysis of the percent parent disappearance vs time curve (T1/2 = 0.693/k) using Microsoft Excel.

[5] = test system: primary T-PLL patient samples; experiment: Ex vivo drug sensitivity (DSS) in primary T-PLL patient samples; assay type: cell-based, human; settings: p = 0.0007, Wilcoxon test
Description: Primary T-PLL cells were isolated from peripheral blood (PB) of 10 T-PLL patients. All patients were diagnosed according to WHO criteria based on clinical features, immunophenotyping (flow cytometry and histochemisty; including TCL1 expression), and FISH/karyotyping.[71],[72] Samples were obtained from patients under IRB-approved protocols following written informed consent according to the Declaration of Helsinki. Collection and use of patient material have been approved for research purpose by the ethics committee of the University Hospital of Cologne (EudraCT-Nr.: #2008-001421-34 and AZ11-319) and Helsinki (303/13/03/01/2011).
PB mononuclear cells (PBMCs) of T-PLL samples were obtained by density gradient centrifugation (Histopaque; Sigma-Aldrich). All drug screening in primary T-PLL patient samples were conducted as previously described.[34],[73]

[6] = Stability in mouse plasma; assay type: in vitro ADME; settings: read-out: Plasma stability t1/2
Experimental: The plasma stability of the compounds was evaluated in mouse plasma provided from Sigma-Aldrich, Oakville, Canada. The main stock solutions of the compounds were prepared at 10 mM in DMSO, which was diluted to 100 μM in 50% acetonitrile (ACN)/50% water. Aliquots of 356.5 μL of plasma proteins were placed in a heating block and allowed to equilibrate at 37 °C for 5 min. Then, 3.5 μL of 100 μM compound solutions were added to each vial (final concentration of 1 μM). Three quality control (QC) samples at 100, 500, and 1000 nM were prepared in 0.5% ACN. The vial contents were transferred in 50 μL aliquots at time points of 0.5, 5, 10, 20, 30, and 60 mi to a 96-well autosampler plate containing 150 μL of protein precipitation solution. Ice-cold ACN containing internals standards (100 nM glyburide) were used as the protein precipitation solution. After centrifugation at 4 °C, 5500 rpm for 15 min, the supernatant was diluted in MQ water, and injected into the LC/MS/MS for quantitative analysis.
The mobile phase consisted of (A) 0.1% (v/v) formic acid in Milli-Q water; (B) 0.1% (v/v) formic acid in acetonitrile. […] Peak areas were determined from extracted ion chromatograms. The in vitro half-life (t1/2) of parent compounds were determined by regression analysis of the percent parent disappearance vs time curve.

[7] = target: T2, HDAC11 (Homo sapiens, UniProt Q96DB2); experiment: HDAC EMSA activity assay (Nanosyn); assay type: biochemical; settings: read-out: IC50 HDAC11
T2 construct: The full-length human HDACs were recombinantly expressed and purified from SF9 insect cells; host or cells: SF9 insect cells
T2 sequence (Q96DB2 1-347): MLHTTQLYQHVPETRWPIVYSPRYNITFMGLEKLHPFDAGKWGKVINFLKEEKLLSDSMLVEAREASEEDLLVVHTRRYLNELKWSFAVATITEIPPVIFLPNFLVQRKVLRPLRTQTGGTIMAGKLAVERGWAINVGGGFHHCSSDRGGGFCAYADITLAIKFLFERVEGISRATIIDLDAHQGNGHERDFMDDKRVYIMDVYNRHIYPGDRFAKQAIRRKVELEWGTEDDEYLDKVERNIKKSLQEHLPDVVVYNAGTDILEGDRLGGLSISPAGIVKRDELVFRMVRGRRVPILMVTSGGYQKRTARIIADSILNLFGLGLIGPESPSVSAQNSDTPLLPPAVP

[8] = read-out: Stability in mouse hepatocytes t1/2

O=C(NO)c1ccc(CN(C2CC2)S(=O)(=O)c2cc(F)c(F)c(F)c2F)cc1 [Compound 14, 4-(((N-Cyclopropyl-2,3,4,5-tetrafluorophenyl)sulfonamido)methyl)-N-hydroxybenzamide]
reactivity with glutathione [1]: no discernible reactivity with GSH; also recorded: no discernible SNAr reaction with GSH | IC50 [2]: > 1 µM | IC50 [3]: > 20 µM | hepatocyte CLint at 2 h, 1 μM [4]: 37.6 ± 0.6 µL/min/1e6 cells | half-life at 1 μM [4, 8]: 37 min | half-life at 2 h, 1 μM [4, 8]: 36.9 ± 0.59 min | drug response (DSS) versus vorinostat (SAHA) [5]: more potent drug response | half-life at 1 μM [6]: 41 min | IC50 [7]: > 1 µM
